By IC50 is commonly meant the point on the concentration scale where inhibition reaches its midpoint. A low value points to higher potency.

Data on 22 compounds can be found in ChEMBL document CHEMBL1153407, “12-Substituted 2,3-dimethoxy-8,9-methylenedioxybenzo[i]phenanthridines as novel topoisomerase I-targeting antitumor agents” (Bioorg Med Chem, 2009).

Test [1] concerns the target T1, DNA topoisomerase 1 (Homo sapiens) (UniProt P11387).
T1 sequence (whole entry): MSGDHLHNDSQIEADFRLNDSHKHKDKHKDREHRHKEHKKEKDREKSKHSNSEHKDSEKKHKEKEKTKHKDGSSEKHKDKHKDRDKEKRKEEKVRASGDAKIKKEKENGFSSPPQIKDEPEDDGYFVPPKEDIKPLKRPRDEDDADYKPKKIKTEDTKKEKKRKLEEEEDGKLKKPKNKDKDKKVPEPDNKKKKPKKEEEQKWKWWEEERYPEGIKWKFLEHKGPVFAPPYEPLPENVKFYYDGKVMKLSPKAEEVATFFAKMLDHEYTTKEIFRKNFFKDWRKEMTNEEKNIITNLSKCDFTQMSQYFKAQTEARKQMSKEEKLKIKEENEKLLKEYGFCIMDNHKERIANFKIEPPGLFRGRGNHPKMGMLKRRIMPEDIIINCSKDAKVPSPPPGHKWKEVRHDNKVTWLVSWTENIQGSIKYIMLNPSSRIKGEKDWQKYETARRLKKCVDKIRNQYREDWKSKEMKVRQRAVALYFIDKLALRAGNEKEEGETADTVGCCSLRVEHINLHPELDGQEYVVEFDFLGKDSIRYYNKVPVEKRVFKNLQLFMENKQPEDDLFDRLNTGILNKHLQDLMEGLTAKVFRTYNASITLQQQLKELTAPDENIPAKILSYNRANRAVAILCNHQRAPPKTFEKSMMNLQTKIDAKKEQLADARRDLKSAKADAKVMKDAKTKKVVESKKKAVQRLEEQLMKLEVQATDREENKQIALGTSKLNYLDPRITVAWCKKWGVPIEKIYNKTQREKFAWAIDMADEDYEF
Kind of test: Inhibition of human topoisomerase 1 expressed in sf9 cells assessed as drug level causing 10% mediated DNA cleavage relative to topotecan.

Test [2] is described as follows: Cytotoxicity against BCRP overexpressing human KBH5.0 cells after 4 days by MTT method. The test is classed as functional, cell-based. Conditions: KBH5.0 cell, 96 h.
Test [3] is described as follows: Cytotoxicity against human KB3-1 cells after 4 days by MTT method. Particulars: KB 3-1, 96 h. The test is classed as functional, cell-based.
A short description of test [4]: Cytotoxicity against MDR1 overexpressing human KBV1 cells after 4 days by MTT method. The test is classed as functional, cell-based. Particulars: KB-V1, 96 h. In general terms: Tetrazolium assays rely on reduction of a dye to a coloured formazan, in cell work by metabolically active cells.
The test system of test [5] is P388. The test is described as follows: Cytotoxicity against mouse P388 cells after 4 days by MTT method. The test is classed as functional, cell-based. Particulars: P388, 96 h.
Test [6] can be described thus: Cytotoxicity against human RPMI8402 cells after 4 days by MTT method. The test is classed as functional, cell-based. Particulars: RPMI 8402, 96 h.
The subject of test [7] is P388. Kind of test: Cytotoxicity against camptothecin-resistant mouse P388 cells after 4 days by MTT method. The test is classed as functional, cell-based. Particulars: P388, 96 h.
The nature of test [8]: Cytotoxicity against camptothecin-resistant human CPT-K5 cells after 4 days by MTT method. Conditions: CPT-K5, 96 h. The test is classed as functional, cell-based.

Where only a bound is given, the exact number is not on record here.

Consider `COc1cc2c(CCCN(C)C)cc3c4cc5c(cc4ncc3c2cc1OC)OCO5`, for which the Activity in test [1] was 10. In addition, the IC50 was 180 nM in test [2]; 40 nM in test [3]; 500 nM in test [4]; 38 nM in test [5]; 180 nM in test [6]; 100 nM in test [7]. In test [8], the IC50 was found to be 140 nM.
On to `COc1cc2c(CCN)cc3c4cc5c(cc4ncc3c2cc1OC)OCO5`, for which the Activity in test [1] stood at 0.3. Besides, the IC50 in test [2] turned out to be 200 nM; in test [3], 50 nM; in test [4], 500 nM; in test [5], 16 nM; in test [6] it was 25 nM; in test [7] it was 300 nM. The same compound showed an IC50 in test [8] of 250 nM.
On to `COc1cc2c(/C=C/CCN(C)C)cc3c4cc5c(cc4ncc3c2cc1OC)OCO5`, for which, in test [1], the Activity turned out to be 15. The IC50 in test [2] stood at 320 nM; in test [3] it was 320 nM; in test [4], 400 nM; in test [5], 30 nM; in test [6], 300 nM; in test [7], 60 nM. The same compound came in with an IC50 in test [8] of 220 nM.
Take `COc1cc2c(CC[N+](=O)[O-])cc3c4cc5c(cc4ncc3c2cc1OC)OCO5`: the Activity in test [1] amounted to 7.7. For the same compound, the half-maximal inhibitory concentration (IC50) in test [2] came out at 490 nM; in test [3], 300 nM; in test [4], 440 nM; in test [5], 280 nM; in test [6] it was 380 nM; in test [7] it was 290 nM. In test [8], this compound registered an IC50 of 300 nM.
Consider `COc1cc2c(CN(C)C)cc3c4cc5c(cc4ncc3c2cc1OC)OCO5`, for which the Activity in test [1] was found to be 1.1. The IC50 in test [2] was 60 nM; in test [3] it was 30 nM; in test [4], 170 nM; in test [5] it was 5 nM; in test [6] it was 33 nM; in test [7] it was 15 nM. For the same compound, in test [8], the IC50 amounted to 33 nM.
For the compound `CC[C@@]1(O)C(=O)OCc2c1cc1n(c2=O)Cc2cc3c(CN(C)C)c(O)ccc3nc2-1` [TOPOTECAN], the IC50 in test [2] amounted to 440 nM; in test [3] it was 40 nM; in test [4], 440 nM.
With `COc1cc2c(/C=C/CN(C)C)cc3c4cc5c(cc4ncc3c2cc1OC)OCO5`, in test [1], the Activity turned out to be 7.7. Further, the IC50 in test [2] is 290 nM; in test [3] it was 160 nM; in test [4] it was 370 nM; in test [5] it was 30 nM; in test [6], 45 nM; in test [7], 37 nM. This compound returned an IC50 in test [8] of 83 nM.
Take `COc1cc2c(CCN(C)C)cc3c4cc5c(cc4ncc3c2cc1OC)OCO5`: in test [1], the Activity came to 0.5. For the same compound, the IC50 is 70 nM in test [2]; 25 nM in test [3]; 80 nM in test [4]; 30 nM in test [5]; 30 nM in test [6]; 300 nM in test [7]. The IC50 in test [8] is 450 nM.
In the case of `COc1cc2c(C(N)=O)cc3c4cc5c(cc4ncc3c2cc1OC)OCO5`, the Activity in test [1] came out at 0.8. Moreover, the IC50 was more than 10000 nM in test [2]; 1500 nM in test [3]; more than 10000 nM in test [4]; 1600 nM in test [5]; 4000 nM in test [6]; more than 10000 nM in test [7]. The IC50 in test [8] was more than 10000 nM.
Regarding `COc1cc2c(C(=O)N(C)C)cc3c4cc5c(cc4ncc3c2cc1OC)OCO5`, the Activity in test [1] came out at 1.1. Also, the 50% inhibitory concentration (IC50) was 380 nM in test [2]; 600 nM in test [3]; 700 nM in test [4]; 480 nM in test [5]; 600 nM in test [6]; more than 10000 nM in test [7]. The same compound registered an IC50 in test [8] of more than 10000 nM.
`CNC(=O)c1cc2c3cc4c(cc3ncc2c2cc(OC)c(OC)cc12)OCO4`: the Activity in test [1] is 1.2. For the same compound, the 50% inhibitory concentration (IC50) is 80 nM in test [2]; 31 nM in test [3]; 100 nM in test [4]; 30 nM in test [5]; 40 nM in test [6]; 300 nM in test [7]. For the same compound, the IC50 in test [8] was more than 10000 nM.
In the case of `COc1cc2c(=O)n(CCN(C)C)c3c4cc5c(cc4ncc3c2cc1OC)OCO5`, the Activity in test [1] stood at 0.3. For the same compound, the IC50 in test [2] was 6 nM; in test [3] it was 5 nM; in test [4] it was 2 nM; in test [6] it was 2 nM; in test [8] it was 900 nM.
Turning to `CCc1c2c(nc3ccc(O)cc13)-c1cc3c(c(=O)n1C2)COC(=O)[C@]3(O)CC` [7-ETHYL-10-HYDROXYCAMPTOTHECIN], the IC50 is 300 nM in test [2], 4 nM in test [3] and 46 nM in test [4].
For the compound `COc1cc2c(CO)cc3c4cc5c(cc4ncc3c2cc1OC)OCO5`, the Activity in test [1] was 0.25. The IC50 in test [2] is 80 nM; in test [3], 45 nM; in test [4] it was 75 nM; in test [5], 30 nM; in test [6], 30 nM; in test [7], 30 nM. For the same compound, the IC50 in test [8] amounted to 30 nM.
On to `COc1cc2c(C(=O)NCCN(C)C)cc3c4cc5c(cc4ncc3c2cc1OC)OCO5`, for which, in test [1], the Activity is 0.1. Also, the IC50 amounted to 60 nM in test [2]; 5 nM in test [3]; 220 nM in test [4]; 3 nM in test [5]; 3 nM in test [6]; 320 nM in test [7]. In addition, the IC50 in test [8] is 1000 nM.
Turning to `COc1cc2c(CCCCN(C)C)cc3c4cc5c(cc4ncc3c2cc1OC)OCO5`, the Activity in test [1] was 0.2. Also, the IC50 in test [2] stood at 950 nM; in test [3], 400 nM; in test [4], 4000 nM; in test [5], 1400 nM; in test [6] it was 1000 nM; in test [7] it was 2100 nM. In test [8], this compound displayed an IC50 of 2300 nM.
With `COc1cc2c3cnc4cc5c(cc4c3c(=O)n(CCN(C)C)c2cc1OC)OCO5`, the Activity in test [1] worked out at 0.6. Further, the IC50 in test [2] stood at 4 nM; in test [3], 3 nM; in test [4], 4 nM; in test [6], 0.7 nM; in test [7], 15 nM; in test [8], 210 nM.
For the compound `COc1cc2c(/C=C/[N+](=O)[O-])cc3c4cc5c(cc4ncc3c2cc1OC)OCO5`, in test [1], the Activity amounted to 9.2. Also, the IC50 in test [2] stood at 40 nM; in test [3], 30 nM; in test [4] it was 1780 nM; in test [5], 25 nM; in test [6], 33 nM; in test [7] it was 25 nM. In test [8], this compound had an IC50 of 35 nM.
For `COc1cc2c(C(O)CCCN(C)C)cc3c4cc5c(cc4ncc3c2cc1OC)OCO5` (centres undefined), the Activity in test [1] turned out to be 9.2. For the same compound, the IC50 in test [2] was 550 nM; in test [3], 170 nM; in test [4], 1900 nM; in test [5] it was 410 nM; in test [6], 300 nM; in test [7] it was 510 nM. For the same compound, in test [8], 2100 nM corresponded to half-maximal inhibition (IC50).
In the case of `CC[C@@]1(O)C(=O)OCc2c1cc1n(c2=O)Cc2cc3ccccc3nc2-1` [CAMPTOTHECIN], the Activity in test [1] was determined as 0.2. Moreover, the IC50 in test [6] was 4 nM; in test [7], more than 10000 nM; in test [8], more than 10000 nM.
`COc1cc2c(CNCCN(C)C)cc3c4cc5c(cc4ncc3c2cc1OC)OCO5`: the Activity in test [1] amounted to 1.9. Also, the IC50 in test [2] amounted to 38 nM; in test [3], 25 nM; in test [4], 27 nM; in test [5] it was 20 nM; in test [6] it was 24 nM; in test [7], 24 nM. Besides, the IC50 in test [8] was determined as 30 nM.
`COc1cc2c(C=O)cc3c4cc5c(cc4ncc3c2cc1OC)OCO5`: the Activity in test [1] was 4.7. Further, the half-inhibitory concentration (IC50) in test [2] was 19 nM; in test [3], 4 nM; in test [4], 16 nM; in test [5], 2 nM; in test [6], 3 nM; in test [7] it was 2 nM. For the same compound, in test [8], the IC50 came out at 3 nM.
